This is an account of results in PubChem BioAssay (NCI).

Molecules are shown by their SMILES.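 Results reflect a 48-hour exposure of cells in 96-well plates to compound at five concentrations. The concentration for full growth arrest is given as TGI.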

Test systems include MDA-MB-435; TK-10 renal; SK-MEL-28 melanoma; HCT-15 colon; IGROV1 ovarian; K-562 leukemia; HL-60(TB) leukemia; OVCAR-8 ovarian; CCRF-CEM leukemia; HCC-2998 colon; SNB-75 CNS; SF-295 CNS; 786-0 renal; HS 578T breast; OVCAR-3 ovarian; SK-MEL-2 melanoma; HT29 colon; PC-3 prostate; LOX IMVI melanoma; OVCAR-4 ovarian.
Common to all, as to assay: DTP human tumour cell line panel, 48 h

Broadly, the TGI is the concentration at which net growth stops.

For the molecule `Brc1ccc2c([C@H]3CN[C@@H](c4c[nH]c5cc(Br)ccc45)CN3)c[nH]c2c1`, the TGI with MDA-MB-435 was 3.11 µM; in the assay on TK-10 renal, 18.5 µM; in the assay with SK-MEL-28 melanoma, 27.2 µM; in the assay with HCT-15 colon, 11.2 µM; in the assay with IGROV1 ovarian, 8.2 µM; in the assay on K-562 leukemia, 4.02 µM. For the same molecule, the TGI was 4.22 µM in the assay on HL-60(TB) leukemia; 3.38 µM with OVCAR-8 ovarian; 8.64 µM in the assay on CCRF-CEM leukemia; 3.02 µM in the assay on HCC-2998 colon; 17.8 µM in the assay with SNB-75 CNS; 19.3 µM in the assay on SF-295 CNS. Further, the TGI in the assay on 786-0 renal stood at 3.18 µM; in the assay with HS 578T breast, 25.2 µM; with OVCAR-3 ovarian, 3.94 µM; in the assay with SK-MEL-2 melanoma, 9.76 µM; with HT29 colon, 4.01 µM; with PC-3 prostate it was 15.2 µM. The TGI with LOX IMVI melanoma worked out at 3.36 µM; with OVCAR-4 ovarian it was 4.69 µM.

`Cc1cc(Cc2c(F)c(F)c(C(c3cc(C)no3)c3c(F)c(F)c(F)c(F)c3F)c(F)c2F)on1` (stereo not given): the TGI in the assay with MDA-MB-435 is over 41.9 µM; in the assay on TK-10 renal it was over 100 µM; with SK-MEL-28 melanoma, over 100 µM; in the assay on HCT-15 colon it was over 100 µM; in the assay on IGROV1 ovarian, over 100 µM; with K-562 leukemia, over 100 µM. Besides, the TGI in the assay with HL-60(TB) leukemia is over 39.6 µM; in the assay with OVCAR-8 ovarian, over 100 µM; with CCRF-CEM leukemia it was over 100 µM; with HCC-2998 colon, over 100 µM; in the assay with SNB-75 CNS, over 100 µM; in the assay with SF-295 CNS, over 100 µM. The TGI with 786-0 renal, with HS 578T breast, in the assay on OVCAR-3 ovarian, in the assay on SK-MEL-2 melanoma, in the assay with HT29 colon and with PC-3 prostate was over 100 µM in each case. Further, the TGI in the assay on LOX IMVI melanoma and in the assay on OVCAR-4 ovarian was over 100 µM each time.

In the case of `O=C(CCCCCCC(=O)Nc1cccnc1)NO`, the TGI was over 42.6 µM in the assay on MDA-MB-435; over 100 µM in the assay with TK-10 renal; over 80.3 µM in the assay on SK-MEL-28 melanoma; over 100 µM in the assay with HCT-15 colon; over 68.9 µM in the assay with IGROV1 ovarian; over 100 µM in the assay on K-562 leukemia. The TGI with HL-60(TB) leukemia is 31.6 µM; in the assay on OVCAR-8 ovarian it was over 57.5 µM; in the assay on CCRF-CEM leukemia it was over 100 µM; in the assay on HCC-2998 colon, 54.5 µM; with SNB-75 CNS, over 100 µM; with SF-295 CNS, over 100 µM. Also, the TGI with 786-0 renal is over 100 µM; with HS 578T breast it was over 95.3 µM; in the assay with OVCAR-3 ovarian, 18.7 µM; with SK-MEL-2 melanoma it was 17.9 µM; in the assay on HT29 colon, over 37.4 µM; in the assay with PC-3 prostate it was over 100 µM. The values for the TGI in the assay with LOX IMVI melanoma and with OVCAR-4 ovarian were 38.9 µM and over 100 µM, respectively.

In the case of `CCOC(=O)C(C(=S)Nc1ccccc1)c1nn2c(=O)cc(C)nc2s1` (stereo not given), the TGI in the assay on MDA-MB-435 is 47.7 µM; in the assay with TK-10 renal, 86.8 µM; with SK-MEL-28 melanoma it was 53.4 µM; in the assay on HCT-15 colon, 85 µM; with IGROV1 ovarian, over 100 µM; with K-562 leukemia it was 49 µM. Besides, the TGI is 43.8 µM with HL-60(TB) leukemia; 51 µM with OVCAR-8 ovarian; over 100 µM in the assay with CCRF-CEM leukemia; 60.6 µM in the assay with HCC-2998 colon; 60 µM in the assay on SNB-75 CNS; over 100 µM in the assay with SF-295 CNS. The TGI in the assay with 786-0 renal was over 100 µM; in the assay with HS 578T breast, over 100 µM; in the assay with OVCAR-3 ovarian, 63.2 µM; in the assay on SK-MEL-2 melanoma it was 94.8 µM; with HT29 colon it was 41.4 µM; in the assay with PC-3 prostate, 66.3 µM. Also, the concentration for total growth inhibition (TGI) in the assay with LOX IMVI melanoma was 30.4 µM; in the assay with OVCAR-4 ovarian it was over 100 µM.

Regarding `O=C/C=C/c1ccco1`, the TGI with MDA-MB-435, with TK-10 renal, in the assay with SK-MEL-28 melanoma, in the assay on HCT-15 colon, with IGROV1 ovarian and with K-562 leukemia was over 100 µM in each case. For the same molecule, the concentration for total growth inhibition (TGI) in the assay with HL-60(TB) leukemia, with OVCAR-8 ovarian, in the assay with CCRF-CEM leukemia, in the assay on HCC-2998 colon, in the assay with SNB-75 CNS and with SF-295 CNS was over 100 µM each time. Also, the TGI in the assay on 786-0 renal, in the assay on HS 578T breast, with OVCAR-3 ovarian, with SK-MEL-2 melanoma, in the assay on HT29 colon and in the assay with PC-3 prostate was over 100 µM throughout. Moreover, the TGI in the assay on LOX IMVI melanoma and in the assay with OVCAR-4 ovarian was over 100 µM in each case.

Consider `CSc1c(C#N)c(N)nc2c(N=Nc3ccc(Cl)cc3)c(N)nn12`, for which the TGI is 28.1 µM with MDA-MB-435; 26.8 µM with TK-10 renal; 7.57 µM in the assay on SK-MEL-28 melanoma; 5.5 µM in the assay on HCT-15 colon; 3.46 µM with IGROV1 ovarian; 4.75 µM with K-562 leukemia. Moreover, the TGI in the assay with HL-60(TB) leukemia was determined as 5.23 µM; with OVCAR-8 ovarian, 4.15 µM; with CCRF-CEM leukemia, 5.47 µM; in the assay with HCC-2998 colon it was 14.8 µM; with SNB-75 CNS, 15.3 µM; in the assay on SF-295 CNS, 62.3 µM. For the same molecule, the TGI with 786-0 renal worked out at 7.1 µM; in the assay with HS 578T breast it was 3.43 µM; in the assay with OVCAR-3 ovarian, 3.38 µM; with SK-MEL-2 melanoma, 8.82 µM; in the assay on HT29 colon, 8.38 µM; in the assay with PC-3 prostate, 7.38 µM. In addition, the values for the TGI in the assay with LOX IMVI melanoma and with OVCAR-4 ovarian were 2.87 µM and 6.68 µM, respectively.

As for `Cc1cc(C)c2c(n1)S(=O)(=O)N(CCCN1CCN(c3cccc(C(F)(F)F)c3)CC1)c1c-2nn(C)c1C`, the TGI in the assay on MDA-MB-435, in the assay with TK-10 renal, in the assay on SK-MEL-28 melanoma, with HCT-15 colon, in the assay with IGROV1 ovarian and in the assay with K-562 leukemia was over 100 µM throughout. The TGI in the assay on HL-60(TB) leukemia, in the assay on OVCAR-8 ovarian, in the assay on CCRF-CEM leukemia, with HCC-2998 colon, in the assay with SNB-75 CNS and in the assay with SF-295 CNS was over 100 µM each time. The TGI with 786-0 renal was over 100 µM; with HS 578T breast, over 100 µM; in the assay on OVCAR-3 ovarian, over 100 µM; in the assay with SK-MEL-2 melanoma, over 100 µM; with HT29 colon, 52 µM; in the assay with PC-3 prostate, over 100 µM. Besides, the TGI in the assay with LOX IMVI melanoma and with OVCAR-4 ovarian was over 100 µM in each case.
